PMC7537338, “CD47/SIRPα blocking peptide identification and synergistic effect with irradiation for cancer immunotherapy” (Journal for Immunotherapy of Cancer, 2020)
Where two headings read alike, the source gives them in different places. Where a SMILES comes first, the peptide text is derived from it. Where no end group is shown, it is not given here. [ ]: non-standard residue; d: D form.

Legend:
[1] = target: T1, human CD47/SIRPα interaction (Homo sapiens, UniProt Q08722); assay: Blocking assay, human CD47 protein binding to CHO cells expressing human SIRPα (flow cytometry); conditions: for Blocking rate relative to pep-20 (%): blockade of peptides to hCD47 relative to parent pep-20, Table S4
T1 construct: Human or mouse CD47-IgV-Domain-hIg fusion proteins (20 nM, Sino Biological, China); purchased Sino Biological (hIg fusion); ACROBiosystems (biotinylated human CD47); host or cells: SIRPα partner: CHO cells stably expressing human SIRPα
T1 sequence (Q08722 19-127 limits assumed): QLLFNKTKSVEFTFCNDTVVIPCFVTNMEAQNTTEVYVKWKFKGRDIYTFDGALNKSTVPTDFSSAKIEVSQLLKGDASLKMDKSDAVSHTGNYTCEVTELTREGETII
Procedure: (§1) Human or mouse CD47-IgV-Domain-hIg fusion proteins (20 nM, Sino Biological, China), or biotinylated human CD47 protein (20 nM, ACROBiosystems, USA) was incubated with titrating concentrations of peptides or anti-human CD47 antibody (B6H12) in phosphate-buffered saline (PBS, pH 7.4) for 1 hour at 4°C. The mixture was incubated with human or mice SIRPα overexpressed Chinese hamster ovary cells for 30 min at 4°C, washed to remove unbound mixtures and phycoerythrin (PE)-conjugated goat anti-human IgG or PE-conjugated streptavidin was incubated (eBioscience, USA). Cells were then analyzed by flow cytometry (BD Biosciences, USA). The IC50 was determined from sigmoidal dose response curves illustrated by GraphPad Prism.

[2] = target: T2, human CD47-IgV-Domain protein (Homo sapiens, UniProt Q08722); assay: MST binding assay to human CD47-IgV-Domain protein
T2 construct: Human or mouse CD47-IgV-Domain proteins were labeled with NT-647 dye
T2 sequence (Q08722 19-127 limits assumed): as above
Procedure: (§2) Human or mouse CD47-IgV-Domain proteins were labeled with NT-647 dye following the microscale thermophoresis (MST) assay protocol, and the labeled protein used for each assay was about 50 to 200 nM. Unlabeled peptides or ligand protein solution was diluted for appropriate concentration serially in buffer (50 mM Tris, 150 mM NaCl, 10 mM MgCl2, 0.05% Tween-20, 0.5% DMSO and pH 7.5). The labeled proteins were then added to peptides or ligand protein solutions by 1∶1 (v/v). The samples were loaded into silica capillaries after incubation at room temperature for 30 min. Binding constants were determined by the MST assay according to manufacturer’s instructions with 20% or 40% light emitting diode (LED) power, 40% MST power at 25°C (Nano Temper, Monolith NT.115, Germany). Data analysis were performed by using a Nanotemper Analysis software.

C57BL/6 naïve mice = assay: Mouse toxicity assays in normal mice; format: in vivo, C57BL/6 mice
Procedure: toxicity analysis. Normal C57BL/6 mice were injected s.c. with 2 mg/kg of pep-20 or normal saline as the negative control daily from day 1 to 14 ( n = 5). On days 0 and 14, hematologic parameters were analyzed. Red blood cell count (A), hemoglobin level ( B) have no significant difference between pep-20 group and control group. (C) Representative H&E staining images of pep-20 treated. Normal C57BL/6 mice were injected s.c. with 2 mg/kg of pep-20 or normal saline as the negative control daily for 14 days (n = 5). The mouse primary organs of heart, liver, spleen, lung, kidney and thymus […]
Table S2. Organ coefficients analysis of pep-20-treated mice.
Heart Liver Spleen Lung Kidney thymus
Normal C57BL/6 mice were injected s.c. with 2 mg/kg pep-20 or normal saline as the negative control daily for 14 days (n = 5). The mice organ tissues were stripped for organ […]
Table S3. Hepatic damage analysis of pep-20-treated mice. […]
negative control daily for 14 days (n = 5). Mice serum samples were collected and hepatic damage analysis were performed for standard aspartate aminotransferase assay (AST) and alanine aminotransferase assay (ALT).
111 Mouse toxicity assays
112 Normal C57BL/6 mice were injected s.c. with 2 mg/kg peptides or normal 113 saline as the negative control daily from day 1 to 14 (n = 5). On days 0 and 14, 114 mice blood samples were collected via retro-orbital bleed. […]
116 Hematologic and blood biochemical parameters were analyzed by ADVIA 117 2120i Hematology Analyzer (Siemens, Germany). […]

[3] = target: T3, mouse CD47/SIRPα interaction (Mus musculus, UniProt Q61735); assay: Blocking assay, mouse CD47-IgV-Domain-hIg binding to CHO cells expressing mouse SIRPα (flow cytometry); conditions: figure 1D, approximately
T3 construct: Human or mouse CD47-IgV-Domain-hIg fusion proteins (20 nM, Sino Biological, China); purchased Sino Biological; host or cells: SIRPα partner: CHO cells stably expressing mouse SIRPα
T3 sequence (Q61735 19-125 limits assumed): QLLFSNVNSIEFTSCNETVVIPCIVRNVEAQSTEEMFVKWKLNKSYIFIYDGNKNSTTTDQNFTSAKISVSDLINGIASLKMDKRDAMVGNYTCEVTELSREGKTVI
Procedure: as §1

[4] = Pharmacokinetic assay in vivo; conditions: C57BL/6, mouse, plasma, iv, 40 mg/kg
Procedure: (E, F) The pharmacokinetic analysis
(§3) of pep-20 and pep- 20-D12. The plasma concentration-time curve of pep-20 (E) and
Data are represented as means ± SEM.
Pharmacokinetic assays in vivo 140
(§4) C57BL/6 mice with weight of 18-20 g were administrated with a single 141
(§5) intravenous dose of 40 mg/kg of peptides. Blood samples were collected an d 142
(§6) centrifuged at 8000 rpm for 10 min at the indicated intervals. Plasma wa s 143
(§7) further mixed with 10% HClO4 at a ratio of 2∶1 (v/v) and centrifuged at 16,000 144
(§8) rpm for 10 min. The supernatant was analyzed by RP-HPLC. The 145 pharmacokinetic parameters of peptides were determined by 146 noncompartmental analysis (NCA) using Phoenix WinNonlin software program 147 5.2.1 (Certara, Princeton, USA). The maximum plasma concentration Cmax and 148 elimination half-life (T1/2) were calculated.

[5] = target: T4, mouse CD47-IgV-Domain protein (Mus musculus, UniProt Q61735); assay: MST binding assay to mouse CD47-IgV-Domain protein; conditions: figure 1B, read-out: KD, pep-20/mCD47
T4 construct: Human or mouse CD47-IgV-Domain proteins were labeled with NT-647 dye
T4 sequence (Q61735 19-125 limits assumed): T3 sequence (Q61735 19-125 limits assumed)
Procedure: as §2

in vivo = conditions: C57BL/6, mouse, iv, 40 mg/kg
Procedure: (E, F) The pharmacokinetic analysis
as §3
Data are represented as means ± SEM.
Pharmacokinetic assays in vivo 140
as §4, §5, §6, §7, §8

[6] = Solubility as observed in the binding assay; format: physicochemical; conditions: higher titrating concentrations for the MST binding assay could not be used
Procedure: To assess the affinity of these candidate peptides toward human CD47, the preliminary binding assay was performed. […] In addition, due to the presence of consensus sequences, it can be hypothesized that the peptides pep-5, pep-9 and pep-19 may have higher affinities.
Table S1. Amino acid sequences and binding activity of selected peptides.
Name Peptide sequence Frequency (n/43) KD (μM)
Peptides targeting hCD47 were obtained by bio-panning, the affinity of peptides to hCD47

[7] = preliminary binding assay, Table S1, NT-647 labeled hCD47, 50 mM Tris, 150 mM NaCl, 10 mM MgCl2, 0.05% Tween-20, 0.5% DMSO, pH 7.5, 25°C, read-out: KD
[8] = 2 mg/kg s.c. daily over 14 days, days 0 and 14, n = 5

C[C@H](NC(=O)[C@H](CO)NC(=O)[C@H](Cc1c[nH]c2ccccc12)NC(=O)[C@@H](C)N)C(=O)N[C@H](C(=O)N[C@@H](Cc1c[nH]c2ccccc12)C(=O)N[C@@H](CO)C(=O)N[C@@H](CC(N)=O)C(=O)N[C@@H](Cc1ccc(O)cc1)C(=O)N[C@@H](Cc1c[nH]c2ccccc12)C(=O)N[C@@H](CCCNC(=N)N)C(=O)N[C@H](Cc1c[nH]cn1)C(=O)O)[C@@H](C)O [pep-20-D2] (H-[dA]WSATWSNYWR[dH]-OH)
Blocking rate relative to pep-20 (%) [1]: 83%

C[C@H](NC(=O)[C@H](CO)NC(=O)[C@H](Cc1c[nH]c2ccccc12)NC(=O)[C@@H](C)N)C(=O)N[C@H](C(=O)N[C@@H](Cc1c[nH]c2ccccc12)C(=O)N[C@@H](CO)C(=O)N[C@@H](CC(N)=O)C(=O)N[C@@H](Cc1ccc(O)cc1)C(=O)N[C@@H](Cc1c[nH]c2ccccc12)C(=O)N[C@H](CCCNC(=N)N)C(=O)N[C@H](Cc1c[nH]cn1)C(=O)O)[C@@H](C)O [pep-20-D3] (H-[dA]WSATWSNYW[dR][dH]-OH)
Blocking rate relative to pep-20 (%) [1]: 75%

C[C@H](NC(=O)[C@H](CO)NC(=O)[C@H](Cc1c[nH]c2ccccc12)NC(=O)[C@@H](C)N)C(=O)N[C@H](C(=O)N[C@@H](Cc1c[nH]c2ccccc12)C(=O)N[C@@H](CO)C(=O)N[C@@H](CC(N)=O)C(=O)N[C@@H](Cc1ccc(O)cc1)C(=O)N[C@H](Cc1c[nH]c2ccccc12)C(=O)N[C@H](CCCNC(=N)N)C(=O)N[C@H](Cc1c[nH]cn1)C(=O)O)[C@@H](C)O [pep-20-D4] (H-[dA]WSATWSNY[dW][dR][dH]-OH)
Blocking rate relative to pep-20 (%) [1]: 96%

ASFSSYNRGYMY [pep-15]
Kd [2, 7]: 14.7 ± 20 µM

ASYTDWWRNRLQ [pep-18]
Kd [2, 7]: 161 ± 111 µM

AWSATWSNYWRH [pep-20]
Organ coefficient, Spleen (C57BL/6 naïve mice; 2 mg/kg s.c. daily for 14 days, n = 5, NS 0.3±0.04): 0.31±0.3 | Organ coefficient, thymus (C57BL/6 naïve mice; 2 mg/kg s.c. daily for 14 days, n = 5, NS 0.42±0.06): 0.36±0.07 | Organ coefficient, Heart (C57BL/6 naïve mice; 2 mg/kg s.c. daily for 14 days, n = 5, NS 0.55±0.03): 0.58±0.05 | Organ coefficient, Lung (C57BL/6 naïve mice; 2 mg/kg s.c. daily for 14 days, n = 5, NS 0.76±0.19): 0.77±0.18 | Organ coefficient, Kidney (C57BL/6 naïve mice; 2 mg/kg s.c. daily for 14 days, n = 5, NS 1.15±0.05): 1.14±0.06 | Organ coefficient, Liver (C57BL/6 naïve mice; 2 mg/kg s.c. daily for 14 days, n = 5, NS 5.02±0.3): 5.01±0.16 | Histopathology, H&E staining of major organs (C57BL/6 naïve mice; 2 mg/kg s.c. daily for 14 days, heart, liver, spleen, lung, kidney, thymus): no abnormalities | Hemoglobin level (C57BL/6 naïve mice; [8]): no significant differences | Red blood cell count (C57BL/6 naïve mice; [8]): no significant differences | ALT (C57BL/6 naïve mice; serum, 2 mg/kg s.c. daily for 14 days, n = 5, NS 6.79±0.92): 7.03±0.86 | AST (C57BL/6 naïve mice; serum, 2 mg/kg s.c. daily for 14 days, n = 5, NS 23.40±4.41): 28.41±5.08 | Kd ([2]; human CD47-IgV-Domain protein, figure 1A, read-out: KD, pep-20/hCD47): 2.91 ± 1.04 µM | Kd [2, 7]: 3.19 ± 2.27 µM | IC50 [3]: ~12 µM | Cmax [4]: 33600 ng/mL | Kd [5]: 3.63 ± 1.71 µM | half-life (in vivo): 35.4 min | IC50 ([1]; 20 nM human CD47-IgV-Domain-hIg, CHO cells expressing human SIRPα, flow cytometry, figure 1C): 24.6 µM | Blocking rate relative to pep-20 (%) [1]: 100%

DRIPKIPGLPVL [pep-6]
Kd [2, 7]: 9.27 ± 15.1 µM

GNKLTQLAASMM [pep-4]
Kd [2, 7]: 5.32 µM

GTYSNYVSHINN [pep-9]
Solubility [6]: poor solubility

KLLPSLPSVSRN [pep-14]
Kd [2, 7]: > 500 µM

LPHYIYETLPVR [pep-5]
Solubility [6]: poor solubility

LYAGKLERISRG [pep-16]
Kd [2, 7]: 10.7 ± 8.89 µM

TDLRYKEHYLYL [pep-3]
Kd [2, 7]: 0.67 µM

VSPLELADNPMY [pep-10]
Kd [2, 7]: 49.9 ± 54.8 µM

VSYKEHDMLYSF [pep-19]
Solubility [6]: poor solubility
